How the values were obtained:
p-p53 (Ser15) = assay: Western Blot for p-p53 (Ser15) in HCT116 cells; type: cell-based, human; details: HCT116, 24 and 48 hours
Description: Treated cells were directly lysed in NP40 cell lysis buffer (Invitrogen, Grand Island, NY, USA) containing protease and phosphatase inhibitors. Protein concentrations were measured colorimetrically (DC Protein Assay, Bio-Rad Laboratories, Hercules, CA, USA). Proteins were separated by SDS - polyacrylamide gel electrophoresis and blotted onto nitrocellulose membranes (Whatman™, Vienna, AUT). Equal loading was checked by Ponceau S (SERVA, Heidelberg, GER) staining. Bound antigen was visualized with the enhanced chemiluminescence detection system (Roche Diagnostics, Indianapolis, IN, USA). These procedures were performed according to the manufacturer’s protocols. Antibodies specific for the following proteins of interest were used: pChk1 (Ser296), p-p53 (Ser15), β-Tubulin and GAPDH were obtained from Cell Signaling Technology (Danvers, MA, USA) at 1∶1000 dilution. Secondary antibodies were peroxidase-tagged goat anti-rabbit or anti-mouse IgGs (Cell Signaling Technology) (1∶2000).

[1] = system: 59 different human tumor cell lines; assay: NCI-60 DTP human tumor cell line screen, all cell lines combined; type: cell-based; details: 48 h, all cancer types, 48 hours incubation
Description: NVX-412 was included in an anti-cancer activity screen by the National Cancer Institute (NCI). The compound was tested against 59 different human tumor cell lines, representing leukemia, melanoma and cancers of the lung, colon, brain, ovary, breast, prostate, and kidney (for a complete list of cell lines please refer to Shoemaker et al. 2006 [5]). The methodology of this in vitro cancer screen is described in detail on the NCI website (http://dtp.nci.nih.gov/branches/btb/ivclsp.html). Briefly, the human tumor cell lines of the cancer screening panel were grown in RPMI 1640 medium containing 5% FCS and 2 mM L-glutamine in 96-well plates at densities ranging from 5,000 to 40,000 cells/well. After 24 hours the experimental drug was added at 5 concentrations plus control and cells were incubated for additional 48 hours. For determination of the growth-inhibitory effect of the compound a sulphorhodamine B assay was performed that employs a chemical fixation step at the end of drug treatment and a subsequent staining for 10 minutes. After a washing step, absorbance was determined at 515 nm. […]

HT-29 = assay: Cytotoxicity assay (cell counting); type: cell-based, Human
Description: (§1) Cells were plated in 24-well plates. After cells were allowed to recover for 24 hours, NVX-412 was added in fresh growth medium. The maximal DMSO concentration reached in all experiments was below 0.01%. Respective control experiments at the highest DMSO concentration were performed in order to rule out DMSO-induced effects. After 72 hours incubation the proportion of viable cells was determined by cell counting with a Z1 Coulter Particle Counter (Beckman Coulter, Vienna, AUT), a ViCell XR (Beckman Coulter, Vienna, AUT) or a CASY® Cell Counter (Schärfe, Reutlingen, Germany). Cytotoxicity was expressed as IC50 values that were derived from the corresponding dose–response curves.

HCT116 = assay: Cytotoxicity assay (cell counting); type: cell-based, Human
Description: as §1

γH2AX (Ser139) = assay: Immunofluorescence staining and quantification of γH2AX in HeLa cells; type: cell-based, human
Description: HCT116 and HeLa cells were seeded on glass cover slips in 6-well plates. 24 hours after plating, HCT116 cells were incubated with 0.15, 0.5 and 1 µM NVX-412 and 1 µM CPT for 24 hours for staining of p-p53. For investigating γH2AX, HeLa cells were incubated with 0.21, 0.5 and 1 µM NVX-412 and 1 µM CPT for 3 or 24 hours. Additionally, cells were allowed to recover for 24 hours in normal growth medium after 24 hours of incubation with NVX-412 or CPT (wash-out experiment). After the respective treatments, cells were washed and fixed with 4% methanol-free formaldehyde (Polysciences Inc. Warrington, PA, USA) for 15 minutes at room temperature and then permeabilized with 0.2% Triton X-100/PBS for 2 minutes at room temperature. After blocking with goat serum (5%) in 1% BSA/0.3% Triton X-100/PBS, the respective primary antibody was added and cells were incubated at 4°C overnight. Antibodies used were: mouse p-p53 (Ser15) (Cell Signaling Technology, Danvers, MA, USA) at 1∶100 dilution and mouse p-H2AX (Ser139) (Millipore, Billerica, MA, USA) at 1∶1000 dilution in 1% BSA/PBS, respectively. Cells were then washed 3 times for 10 minutes with 0.25% BSA/0.1% Triton X-100/PBS and incubated with the Alexa Fluor 488 conjugated secondary anti-mouse antibody (1∶1000 in 0.25% BSA/0.1% Triton X-100/PBS) for 1 hour at room temperature in the dark. Cells were washed 3 times for 10 minutes with 0.05% Tween-20/PBS containing Hoechst 33342 (Sigma Aldrich, Vienna, AUT) and mounted with mounting medium (Fluoprep, bioMérieux, Marcy l'Etoile, FRA). Fluorescence was immediately recorded on a Zeiss LSM700 laser scanning microscope.
The common procedure for assessing γH2AX induction is to count γH2AX foci. Since with NVX-412 and the positive control CPT γH2AX activation was that strong, no distinguishable and countable foci were seen. Therefore, the average γH2AX fluorescence intensity per nucleus was determined. To this end, γH2AX intensities within a certain field were measured using Quantity One –4.6.9 (Basic freeware version, Bio-Rad Laboratories, Hercules, CA, USA) and were divided by the number of nuclei in this field.

HCT116 cells = assay: DNA replication rate (BrdU incorporation ELISA); type: cell-based, human
Description: (§2) HeLa and HCT116 cells were plated in black 96-well plates. After cells were allowed to recover for 24 hours NVX-412 or CPT was added in fresh growth medium. After 24 hours of incubation a chemiluminescent BrdU Incorporation ELISA (Roche Applied Science, Penzberg, Germany) was performed with half of the plates according to the manufacturer’s protocol. Cells in the remaining plates were allowed to recover for 24 hours in normal growth medium before DNA replication was measured (wash-out experiment). To check whether a possible decline in DNA replication rate is not simply due to lower cell numbers because of cell death induction, the proportion of viable cells was determined in parallel by a MTT-based cytotoxicity assay according to the manufacturer’s protocol (EZ4U, Biomedica, Vienna, Austria). Colorimetric (at 492 and 620 nm) and chemiluminescent measurements were performed using a FLUOstar OPTIMA (BMG Labtech, Ortenberg, Germany).

HeLa cells = assay: DNA replication rate (BrdU incorporation ELISA); type: cell-based, human
Description: as §2

Structure (SMILES): O=C(NNc1nc2cc(F)ccc2n2cccc12)c1cnccn1 [NVX-412, Pyrazine-2-carboxylic acid N’- (7-fluoro-pyrrolo[1,2-α]quinoxalin-4-yl)-hydrazide-oxalic acid co-crystal]
- Phosphorylated p53 (Western Blot) (p-p53 (Ser15); below or at the IC50): negative for phosphorylated p53
- Phosphorylated p53 (Western Blot) (p-p53 (Ser15); concentrations above the IC50): strong induction
- IC50 [1]: ~200 nM
- IC50 lower compared to the parental compound NVX-144 (HT-29; HT-29 colon carcinoma cell line): 3 to 4 fold
- IC50 (HT-29; Homo sapiens, HT-29, colon adenocarcinoma, 72 hours incubation): 300 nM
- IC50 lower compared to the parental compound NVX-144 (HCT116; HCT116 colon carcinoma cell line): 3 to 4 fold
- IC50 (HCT116; Homo sapiens, HCT-116, HCT116, colon carcinoma, 72 hours incubation): 150 nM
- γH2AX induction (γH2AX (Ser139); 3 hours): Only a slight induction of γH2AX
- γH2AX levels after recovery (wash-out) (γH2AX (Ser139); 24 hours treatment then 24 hours without drug): decreased to nearly basal levels
- γH2AX levels (γH2AX (Ser139); 24 hours, 0.21, 0.5 and 1 µM): elevated after a 24 hour treatment in a dose-dependent manner
- γH2AX staining increase (average fluorescence intensity per nucleus) (γH2AX (Ser139); 24 hours, highest concentration tested, p-value <0.0001): up to 15 fold
- DNA replication rate (BrdU incorporation) (HCT116 cells; HCT116, 24 hours treatment): reduction of DNA replication
- DNA replication rate after recovery (wash-out) (HCT116 cells; HCT116, 24 hours treatment then 24 hours in normal growth medium): the rate increased to normal levels
- DNA replication rate (BrdU incorporation) (HeLa cells; 24 hours treatment): reduction of DNA replication
- DNA replication rate after recovery (wash-out) (HeLa cells; 24 hours treatment then 24 hours in normal growth medium): the rate increased to normal levels

Reference: PMC3441706 (PLoS ONE, 2012)
